These results are taken from patent publication US11952364B2, “TRK inhibitors useful as anticancer drugs” (TYLIGAND BIOSCIENCE (SHANGHAI) LIMITED, priority 2018, dated 2024).

≈ marks a conversion by molar mass, not a printed value. Where two headings read alike, the source gives them in different places.

A short description of data set [1]: Metabolic stability in liver microsomes. In kind it is in vitro ADME. As to conditions: pH 7.4; for half-life at 1 µM: read-out: T½. An excerpt:
(§1) According to standard methods conventional in the art for in vitro metabolic stability studies, for example those protocols described in Kems, Edward H. and Di Li (2008). Drug-like Properties: Concepts. Structure Design and Methods: from ADME to Toxicity Optimization. San Diego: Academic Press; Di, Li et al., Optimization of a Higher Throughput Microsomal Stability Screening Assay for Profiling Drug Discovery Candidates, J. Biomol. Screen. 2003, 8(4), 453., the metabolic stability test in liver microsomes of the present compound was performed analogously as follows.
(§2) The in vitro metabolic stability of the compound in 5 species (mouse, rat, dog, monkey, and human) was evaluated by liver microsomal stability test. 0.1M potassium phosphate buffer solution (pH 7.4, containing 1.0 mM EDTA) was prepared. The test compound and the control compound were prepared into a 10 mM DMSO solution, and then 10 μL of the 10 mM DMSO compound solution was added to 190 μL of acetonitrile to prepare a 500 μM compound solution. Liver microsomes (Sekisui XenoTech, LLC., human liver microsomes, cat. #H0610; Beagle dog liver microsomes, cat. #D1000; cynomolgus monkey liver microsomes, cat. #P2073; rat liver microsomes, cat. #R1073; mouse Liver microsomes, cat. #M1000) were taken and slowly melted on ice, then 18.75 μL of the liver microsome solution (20 mg/mL) and 1.5 μL of 500 μM compound solution were added to 479.75 μL of 0.1M potassium phosphate buffer solution to prepare a 0.75 mg/mL liver microsome working solution with a concentration of 1.5 μM compound. 6 mM NADPH (SIGMA, cat. #V900362) aqueous solution was prepared. 0.2 mL 2 mg/mL internal standard stock solution (imipramine solution in acetonitrile) was added to 1000 mL acetonitrile (SIGMA, cat. #271004) to prepare the reaction stop solution and stored at 4° C.
Six deep-well plates were labeled as T0, T5, T15, T30, T45 and NCF60 (negative control, without NADPH). 30 μL of […] control compound or test compound solution in 0.75 mg/mL liver microsome working solution was added to each well of the corresponding plates. After being sealed with film, all the microplates were placed in a 37° C. water bath to preheat for 5 minutes, and 6 mM NADPH solution was placed in a 37° C. water bath to preheat for 5 minutes. Then 15 μL of NADPH solution was added to each cell successively in reverse time order, that is, first adding the T45 plate, 15 minutes later the T30 plate, 15 minutes later again the T15 plate, and 10 minutes later gain the T5 plate. NCF60 plate was not added with NADPH but 15 μL of deionized water. At this time, to the TO plate were added 135 μL of ice-cooled reaction stop solution and 15 μL of NADPH solution. By the end of the reaction, 135 μL of ice-precooled reaction stop solution was added successively to each well of the T5, T15, T30, and T45 plates. All samples were centrifuged at 4° C. at 600 rpm for 10 minutes, and then at 5594 g for 15 minutes (Thermo Multifugex 3R). Six 96-well plates were respectively labeled and added 50 μL of ultrapure water (Millipore, ZMQS50F01) to each well, then 50 μL of the centrifuged supernatant was added to the corresponding well of the corresponding plate, for LC-MS/MS-014 (API4000), UPLC-MS/MS-11 (API4000), LC-MS/MS-034 (API-6500+) analysis. The concentration (C0) of the test compound at TO time point was taken as 100%, and the concentrations at other incubation time points were converted into residue percentages.
(§3) The natural logarithm of the residue percentage at each time point was subjected to linearly regression as a factor of incubation time to obtain Slope k, and then the liver microsome clearance rate (CLint^mic) and in vitro half-life (T½) were calculated according to the following formula: […]

Data set [2] in a line: Metabolic stability in liver microsomes. In kind it is in vitro ADME, cynomolgus monkey. As to conditions: pH 7.4, monkey liver microsomes; for half-life at 1 µM: read-out: T½.
Excerpt: as §1, §2
Six deep-well plates were labeled as T0, T5, T15, T30, T45 and NCF60 (negative control, without NADPH). 30 μL of […] control compound or test compound solution in 0.75 mg/mL liver microsome working solution was added to each well of the corresponding plates. After being sealed with film, all the microplates were placed in a 37° C. water bath to preheat for 5 minutes, and 6 mM NADPH solution was placed in a 37° C. water bath to preheat for 5 minutes. Then 15 μL of NADPH solution was added to each cell successively in reverse time order, that is, first adding the T45 plate, 15 minutes later the T30 plate, 15 minutes later again the T15 plate, and 10 minutes later gain the T5 plate. […]
as §3

The nature of data set [3]: Solubility in simulated fluids and PBS. In kind it is physicochemical. As to conditions: for solubility: thermodynamic from solid, 25° C. The source says:
According to the well-known standard methods conventional in the art for solubility determination, for example those described in Kems, Edward H. and Di Li (2008). Drug-like Properties: Concepts, Structure Design and Methods: from ADME to Toxicity Optimization. San Diego: Academic Press), the solubility properties of the compounds of the present disclosure were investigated as follows, in testing systems of FaSSGF (pH 1.6) (Biorelevant, Fasted State Simulated gastric fluids), FeSSIF (pH 5.8) (Biorelevant, Fed State Simulated Intestinal Fluid), FaSSIF (pH 6.5) (Biorelevant, Fasted State Simulated Intestinal Fluid) and PBS buffer (Hyclone, Cat No. SH30256.01B).
Accurately weighed ˜1 mg of test compound dry powder was charged into a glass bottle, and added an appropriate volume of each of the above test system solutions, to prepare a 4 mg/mL working solution. The sample bottle was placed on a shaker at room temperature (25° C.) and shook at 1000 rpm for 1 hour, then stood overnight for equilibrium. All samples were centrifuged at 12000 rpm at 25° C. for 10 minutes. Solutions of different concentrations for each compound were prepared in DMSO as the standard solutions. 580 μL of 20% (v/v) acetonitrile aqueous solution (containing 40 ng/mL tolbutamide as internal standard) was added into each well of three microplates, and mixed uniformly. 20 μL of 4 mg/mL working solution or standard solution was added to the wells of the first microplate and mixed uniformly, from which 20 μL was taken and added to the corresponding well of the second microplate, and mixed uniformly, from which again 20 μL was taken from each well and added to the corresponding wells of the third microplate, and mixed uniformly. Mass spectrometry was adopted to analyze the samples (LC-MS/MS-014, API4000), a standard curve was developed based on the concentrations of the standard solutions, and the solubility of the test compound was calculated.

The mark [4] stands for this setting: PBS buffer, aqueous buffer, PBS pH 7.4, read-out: Solubility PBS (pH 7.4).
Where [5] appears, read: fassgf or other biorelevant, FaSSGF pH 1.6, read-out: Solubility FaSSGF (pH 1.6).
The mark [6] stands for this setting: FaSSIF pH 6.5, read-out: Solubility FaSSIF (pH 6.5).
Setting [7] is: FeSSIF pH 5.8, read-out: Solubility FeSSEF (pH 5.8).

Take `COc1ccc(C(=O)Nc2ccc(Oc3cc4cnn(C)c4cc3-c3cn[nH]c3)c(F)c2)c(=O)n1-c1ccc(F)cc1` [Example 12, N-(3-fluoro-4-(1-methyl-6-(1H-pyrazol-4-yl)-1H-indazol-5-yloxy)phenyl)-1-(4-fluorophenyl)-6-methoxy-2-oxo-1,2-dihydropyridine-3-carboxamide]: the CLint scaled at 1 µM in data set [1] (Beagle, dog liver microsomes) was found to be 46.5 mL/min/kg; in data set [1] (human liver microsomes), 6.03 mL/min/kg; in data set [1] (mouse liver microsomes), 63.3 mL/min/kg; in data set [1] (rat liver microsomes) it was 74.4 mL/min/kg; in data set [2], 36.2 mL/min/kg. In addition, the half-life at 1 µM turned out to be 1.24 h in data set [1] (Beagle, dog liver microsomes); 4.81 h in data set [1] (human liver microsomes); 0.653 h in data set [1] (mouse liver microsomes); 1.22 h in data set [1] (rat liver microsomes); 0.933 h in data set [2]. In addition, the solubility in data set [3] (setting [4]) is 0.01 µg/mL (≈ 0.0176 µM); in data set [3] (setting [5]), 27.7 µg/mL (≈ 48.7 µM); in data set [3] (setting [6]), 5.47 µg/mL (≈ 9.62 µM); in data set [3] (setting [7]) it was 53.3 µg/mL (≈ 93.7 µM). In addition, the “solubility compared with Merestinib” value in data set [3] (statement in words) is on record as “significantly improved solubility as compared with Merestinib”.

As to `Cc1ccc(C(=O)Nc2ccc(Oc3cc4cnn(C)c4cc3-c3cn[nH]c3)c(F)c2)c(=O)n1-c1ccc(F)cc1` [Merestinib, reference compound], the CLint scaled at 1 µM in data set [1] (Beagle, dog liver microsomes) is 38.4 mL/min/kg; in data set [1] (human liver microsomes), 22 mL/min/kg; in data set [1] (mouse liver microsomes), 90.3 mL/min/kg; in data set [1] (rat liver microsomes) it was 105 mL/min/kg; in data set [2], 81 mL/min/kg. Also, the half-life at 1 µM in data set [1] (Beagle, dog liver microsomes) amounted to 1.5 h; in data set [1] (human liver microsomes), 1.32 h; in data set [1] (mouse liver microsomes), 0.459 h; in data set [1] (rat liver microsomes), 0.867 h; in data set [2] it was 0.417 h. In addition, the solubility in data set [3] (setting [4]) is 0.02 µg/mL (≈ 0.0362 µM); in data set [3] (setting [5]), 19.3 µg/mL (≈ 34.9 µM); in data set [3] (setting [6]), 3.07 µg/mL (≈ 5.56 µM); in data set [3] (setting [7]) it was 33.7 µg/mL (≈ 61 µM).
